Values belong to the molecule of their own block, whether it stands above or below them. Activity calls are given as the source filed them.
What was measured:
[1] = target: T1, Heat shock factor protein 1 (Mus musculus, UniProt P38532); experiment: inhibition of MG132-induced HSE-luciferase signal, confirmation, cell-based, NIH3T3, luminescence, dose retest (AID 2382); type: functional;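 further: NIH3T3 fibroblasts with HSF1-driven luciferase reporter stressed by proteasome inhibitor MG132; luminescence from HSF1-driven luciferase expression after 8 hours of MG132 stress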
T1 sequence (P38532 whole entry): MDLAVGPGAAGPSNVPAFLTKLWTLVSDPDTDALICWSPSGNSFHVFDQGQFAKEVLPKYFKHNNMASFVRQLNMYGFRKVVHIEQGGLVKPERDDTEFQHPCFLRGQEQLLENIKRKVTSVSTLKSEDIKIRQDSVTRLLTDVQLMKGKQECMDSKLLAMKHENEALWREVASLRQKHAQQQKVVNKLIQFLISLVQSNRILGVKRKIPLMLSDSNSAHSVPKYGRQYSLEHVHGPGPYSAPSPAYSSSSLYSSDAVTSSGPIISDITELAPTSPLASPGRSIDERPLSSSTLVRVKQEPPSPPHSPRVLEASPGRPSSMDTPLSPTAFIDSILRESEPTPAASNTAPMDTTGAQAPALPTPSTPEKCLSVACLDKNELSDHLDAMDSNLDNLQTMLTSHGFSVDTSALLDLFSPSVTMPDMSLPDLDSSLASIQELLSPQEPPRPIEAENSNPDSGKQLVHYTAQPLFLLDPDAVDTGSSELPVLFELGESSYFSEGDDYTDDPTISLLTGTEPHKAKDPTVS

[2] = target: T2, Rac GTPase-activating protein 1 (Homo sapiens, UniProt Q9H0H5); experiment: MgcRacGAP GTPase-activating activity inhibitors, confirmation, biochemical, ADP Hunter fluorescence, primary and confirmatory (AID 624330); type: functional
T2 sequence (Q9H0H5 whole entry): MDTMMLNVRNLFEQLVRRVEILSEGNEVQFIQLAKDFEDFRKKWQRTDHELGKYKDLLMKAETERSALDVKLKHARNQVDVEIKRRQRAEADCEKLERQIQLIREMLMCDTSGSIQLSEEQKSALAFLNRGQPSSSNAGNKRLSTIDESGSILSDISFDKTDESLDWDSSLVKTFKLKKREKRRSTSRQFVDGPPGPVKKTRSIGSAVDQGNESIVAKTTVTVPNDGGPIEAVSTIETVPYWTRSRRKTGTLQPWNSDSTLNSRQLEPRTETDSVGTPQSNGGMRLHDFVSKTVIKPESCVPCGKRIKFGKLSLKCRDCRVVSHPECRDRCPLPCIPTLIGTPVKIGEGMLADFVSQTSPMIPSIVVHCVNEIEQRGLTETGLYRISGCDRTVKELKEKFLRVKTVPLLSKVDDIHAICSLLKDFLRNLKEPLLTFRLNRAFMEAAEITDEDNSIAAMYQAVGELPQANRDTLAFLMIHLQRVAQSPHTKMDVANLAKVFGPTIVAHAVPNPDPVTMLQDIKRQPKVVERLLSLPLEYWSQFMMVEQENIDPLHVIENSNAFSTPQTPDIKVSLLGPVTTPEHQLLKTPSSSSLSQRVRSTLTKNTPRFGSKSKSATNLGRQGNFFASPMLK

Cytochrome P450 1A2 = target: T3, Cytochrome P450 1A2 (Homo sapiens, UniProt P05177);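 further: PubChem cytochrome P450 panel assay, CYP1A2 panel member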
T3 sequence (P05177 whole entry): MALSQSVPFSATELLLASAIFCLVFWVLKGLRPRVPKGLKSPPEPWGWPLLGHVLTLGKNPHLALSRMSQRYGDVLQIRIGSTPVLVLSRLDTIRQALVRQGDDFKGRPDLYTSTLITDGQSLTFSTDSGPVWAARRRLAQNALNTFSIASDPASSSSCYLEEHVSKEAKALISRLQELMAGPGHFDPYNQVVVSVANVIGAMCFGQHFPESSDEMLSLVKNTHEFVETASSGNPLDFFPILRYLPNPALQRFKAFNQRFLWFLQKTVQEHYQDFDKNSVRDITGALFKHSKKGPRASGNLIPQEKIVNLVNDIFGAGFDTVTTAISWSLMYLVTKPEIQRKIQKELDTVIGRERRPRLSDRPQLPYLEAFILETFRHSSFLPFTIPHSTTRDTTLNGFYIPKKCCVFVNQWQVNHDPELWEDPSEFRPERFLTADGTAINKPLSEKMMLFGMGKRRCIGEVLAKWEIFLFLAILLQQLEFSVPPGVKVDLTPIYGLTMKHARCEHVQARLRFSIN

Cytochrome P450 3A4 = Cytochrome P450 3A4 (Homo sapiens, UniProt P08684);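 further: CYP3A4 tested as one member of a cytochrome P450 panel screen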
Cytochrome P450 2C9 = Cytochrome P450 2C9 (Homo sapiens, UniProt P11712)
[3] = inhibitors of intracellular T. cruzi replication, confirmation, NIH3T3 host cells, beta-gal luminescence (AID 2044); type: functional, cell-based;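 further: intracellular parasites grown in NIH/3T3 mouse fibroblasts as host cells; luminescent beta-galactosidase reporter signal from transgenic T. cruzi replicating inside host cells; inhibitors lower the luminescence signal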
[4] = cytotoxicity toward NIH3T3 fibroblasts, dose response, counter-screen, cell-based, ATP luminescence, mouse fibroblasts (AID 2010); type: functional;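 further: cells exposed to compound for about 90 hours before reading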
Cytochrome P450 2C19 = Cytochrome P450 2C19 (Homo sapiens, UniProt P33261); experiment: Cytochrome panel assay with activity outcomes. Panel member name: p450-cyp2c19 Compounds with AC50 equal or less than 10 uM are considered active; type: functional; conditions: read-out: AC50
[5] = HEp-2 cell cytotoxicity, dose response, cytotoxicity control for RSV inhibitor project, HTS (AID 2410); type: functional; conditions: human respiratory syncytial virus

Chain of Cytochrome P450 3A4 (P08684 whole entry): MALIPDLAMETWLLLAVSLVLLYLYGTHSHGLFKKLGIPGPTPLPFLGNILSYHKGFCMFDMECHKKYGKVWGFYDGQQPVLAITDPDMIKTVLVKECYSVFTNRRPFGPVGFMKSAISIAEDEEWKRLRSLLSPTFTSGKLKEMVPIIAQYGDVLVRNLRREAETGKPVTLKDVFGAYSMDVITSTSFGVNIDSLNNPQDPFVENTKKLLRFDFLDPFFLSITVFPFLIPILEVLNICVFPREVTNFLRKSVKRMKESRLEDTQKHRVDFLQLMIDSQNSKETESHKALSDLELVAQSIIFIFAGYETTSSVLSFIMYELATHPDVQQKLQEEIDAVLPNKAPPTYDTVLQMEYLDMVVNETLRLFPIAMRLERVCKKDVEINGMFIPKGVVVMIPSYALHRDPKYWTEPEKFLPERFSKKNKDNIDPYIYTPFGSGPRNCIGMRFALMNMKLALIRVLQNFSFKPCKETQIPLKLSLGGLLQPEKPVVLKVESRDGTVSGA
Chain of Cytochrome P450 2C9 (P11712 whole entry): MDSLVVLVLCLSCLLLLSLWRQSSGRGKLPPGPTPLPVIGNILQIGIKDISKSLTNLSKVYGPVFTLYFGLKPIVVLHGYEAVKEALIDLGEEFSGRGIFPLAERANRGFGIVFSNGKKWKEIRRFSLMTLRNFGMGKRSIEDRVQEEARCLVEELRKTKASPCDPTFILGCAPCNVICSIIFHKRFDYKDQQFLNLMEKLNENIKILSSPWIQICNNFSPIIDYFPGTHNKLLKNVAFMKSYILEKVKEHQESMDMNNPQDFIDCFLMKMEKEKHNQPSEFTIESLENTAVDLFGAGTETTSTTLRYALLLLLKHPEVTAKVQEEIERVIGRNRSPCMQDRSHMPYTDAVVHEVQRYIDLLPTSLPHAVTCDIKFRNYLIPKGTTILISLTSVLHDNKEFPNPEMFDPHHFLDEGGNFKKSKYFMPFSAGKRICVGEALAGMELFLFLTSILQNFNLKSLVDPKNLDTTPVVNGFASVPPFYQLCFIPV
Chain of Cytochrome P450 2C19 (P33261 whole entry): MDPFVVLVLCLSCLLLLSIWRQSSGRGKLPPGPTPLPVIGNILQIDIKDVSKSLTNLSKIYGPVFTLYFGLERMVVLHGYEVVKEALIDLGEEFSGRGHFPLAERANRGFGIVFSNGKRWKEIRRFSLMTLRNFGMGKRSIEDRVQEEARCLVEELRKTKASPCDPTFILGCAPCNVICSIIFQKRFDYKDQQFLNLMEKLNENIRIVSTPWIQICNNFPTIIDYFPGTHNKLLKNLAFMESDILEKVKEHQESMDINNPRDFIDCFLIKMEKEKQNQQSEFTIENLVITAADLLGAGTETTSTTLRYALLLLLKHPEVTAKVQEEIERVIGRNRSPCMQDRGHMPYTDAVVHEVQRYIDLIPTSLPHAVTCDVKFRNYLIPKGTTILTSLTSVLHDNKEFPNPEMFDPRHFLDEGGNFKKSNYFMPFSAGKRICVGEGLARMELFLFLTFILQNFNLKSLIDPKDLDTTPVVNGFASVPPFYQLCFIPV

Compound: CCCN1CCC(=O)N([C@H](CSc2ccccc2)Cc2ccccc2)CC1
EC50 [1]: > 195 µM (not active)

Compound: Cc1ccc2ccccc2c1CSc1nc(N)nc2c1ncn2CC(C)C
AC50 (Cytochrome P450 2C9): 7.94 µM (inconclusive)

Compound: Clc1ccc(SCc2cc(-c3ccccc3)no2)cc1
AC50 (Cytochrome P450 2C9): 4.47 µM (inconclusive)

Compound: CCOC(=O)C1CCN(C(=O)COc2cc(C)c(Br)cc2C)CC1
EC50 [1]: > 195 µM (not active)

Compound: Cc1ccc(C)c(Oc2ccc(S(=O)(=O)N3CCN(C)CC3)cn2)c1
EC50 [3]: 1.14 µM (active)
EC50 [4]: > 60 µM (not active)

Compound: O=C(Nc1ccc(F)cc1)NC1CCN(Cc2ccccc2)CC1
EC50 [3]: 0.476 µM (active)
EC50 [4]: > 60 µM (not active)

Compound: c1cncc(-c2nnc(SCc3nc4ccccc4[nH]3)o2)c1
EC50 [1]: 126 µM (active)

Compound: O=C(OCCN1CCN(c2ncc(C(F)(F)F)cc2Cl)CC1)c1ccc(Cl)cc1
EC50 [1]: > 195 µM (not active)

Compound: Cc1noc(NC(=O)Nc2ccccc2F)c1C#N
AC50 (Cytochrome P450 1A2): 0.794 µM (inconclusive)

Compound: CCCC1(C(=O)OC)C=C2C(=C(C(C)C)C(=O)C2C)CN1 (stereo not drawn)
AC50 (Cytochrome P450 3A4): 12.6 µM (inconclusive)
AC50 (Cytochrome P450 2C9): 20 µM (inconclusive)

Compound: CCCC(C)C(=O)Nc1ncc(S(=O)(=O)c2ccc([N+](=O)[O-])cc2)s1 (stereo not drawn)
EC50 [3]: 2.25 µM (active)
EC50 [4]: > 60 µM (not active)

Compound: N#CCCn1nnc(-c2ccccc2F)n1
EC50 [1]: > 195 µM (not active)

Compound: Cc1ccc(NC(=O)CC2C(=O)N(Cc3ccccc3)C(=S)N2NC(=O)c2ccccc2)c(C)c1 (stereo not drawn)
CC50 [5]: > 50 µM (active)

More lines, now with the values ahead:

EC50 [1]: > 195 µM (not active)
Compound: NC(=O)Cc1ccc(C(=O)c2ccc(Cl)cc2)s1

EC50 [1]: > 195 µM (not active)
Compound: Cn1c(=O)c2ccccc2n(Cc2ccccc2Cl)c1=O

IC50 [2]: 109 µM (active)
Compound: CC(C)c1ccc(NC(=O)CNCC(c2ccccc2)N(C)C)cc1 (stereo not drawn)

AC50 (Cytochrome P450 1A2): 15.8 µM (inconclusive)
Compound: C[C@@H](C(=O)NCCc1c[nH]c2ccccc12)[C@H]1C[C@]1(C)[C@H](NC(=O)OCc1ccccc1)c1ccccc1

AC50 (Cytochrome P450 1A2): 2.51 µM (inconclusive)
AC50 (Cytochrome P450 3A4): 12.6 µM (inconclusive)
Compound: COc1ccc(-n2c(=O)c(-c3ccc(F)c(F)c3)nc3cncnc32)cc1

AC50 (Cytochrome P450 2C9): 25.1 µM (inconclusive)
Compound: COc1ncc2nc(-c3ccc(Cl)cc3)c(=O)n(C[C@H]3CCCO3)c2n1

AC50 (Cytochrome P450 1A2): 28.2 µM (inconclusive)
Compound: COc1cc(OC)nc(NC(C)=O)n1

EC50 [1]: > 195 µM (not active)
Compound: COc1ccc(NC(=O)CCN2CCN(S(=O)(=O)c3ccc(OC)cc3)CC2)cc1

AC50 (Cytochrome P450 3A4): 35.5 µM (inconclusive)
AC50 (Cytochrome P450 2C9): 3.55 µM (inconclusive)
Compound: CCOC(=O)c1ccc(Nc2nc(C(=O)OCC)nc3ccccc23)cc1

AC50 (Cytochrome P450 1A2): 25.1 µM (inconclusive)
AC50 (Cytochrome P450 2C9): 15.8 µM (inconclusive)
Compound: COC(=O)[C@@]1(Cc2ccc(F)cc2)[C@H]2c3cc(C(=O)N(C)C)n(Cc4ccc(S(C)(=O)=O)cc4)c3C[C@H]2CN1C(=O)c1ccccc1

AC50 (Cytochrome P450 1A2): 15.8 µM (inconclusive)
Compound: COc1ccc(C(=O)NCS(=O)(=O)c2ccc(C)cc2)cc1

EC50 [1]: > 195 µM (not active)
Compound: Cc1ccc(NC(=O)[C@@H](C)NC(=O)[C@@H]2Cc3ccccc3CN2)cc1

AC50 (Cytochrome P450 2C19): 3.55 µM (inconclusive)
AC50 (Cytochrome P450 1A2): 2 µM (inconclusive)
AC50 (Cytochrome P450 3A4): 3.16 µM (inconclusive)
AC50 (Cytochrome P450 2C9): 39.8 µM (inconclusive)
Compound: COCCNC(=O)/C(C#N)=C/c1ccc(-c2ccc(OC)cc2[N+](=O)[O-])o1

AC50 (Cytochrome P450 3A4): 15.8 µM (inconclusive)
AC50 (Cytochrome P450 2C9): 35.5 µM (inconclusive)
Compound: CN(C)C(=O)CSC1c2ccccc2C(=O)N1c1ccccc1 (stereo not drawn)
